Assay results published in patent US5620955A, “Bombesin receptor antagonists and uses thereof” (Peptide Technologies Corporation, priority 1993, dated 1997).
Read-outs that look alike come from different tables or passages of the source. Non-standard residues stand in square brackets, D forms with d. Residues, ends and D or L forms follow the SMILES beside them. *: point of attachment. BrAc = O=C(CBr)*

Columns and labels:
NCI-H720 = test: Clonagenic assay, colony formation of NCI-H720; format: cell-based, human; conditions: for colony formation: NCI-H720; for colony formation (in words): second SCLC line (NCI-H270 in the text, NCI-H720 in Table 4), 1 μM
Method: (§1) On the day of the assay, cells were harvested, centrifuged and suspended in the buffer. The agarose cloning system consisted of 3 ml of 0.5% agarose in SIT medium with 5% fetal bovine serum in six well plates. To a top layer, consisting of 3 ml HITES medium in 0.3% agarose, the peptides at two times concentration and 6×10^4 single viable cells, were added. For each peptide concentration, triplicate wells were plated. After two weeks, 1 ml of 0.1% p-iodo-nitrotetrazolium violet was added, and after 16 hours at 37° C., the plates were screened for colony formation; the number of colonies larger than […] in diameter were counted using a Bausch and Lomb Omnicon image analysis system.

BBN receptor [1] = molecular target: T1, BBN receptor (Homo sapiens, UniProt P30550); test: Cytosolic Ca++ assay in SCLC cell line NCI-H345; format: cell-based; set-up: key: antagonized (A); had no effect (--) on the ability of 10 nM BBN to; conditions: compound 10 μM; 10 nM BBN elevation of cytosolic Ca++
T1 construct: endogenous in cells; host or cells: NCI-H345 (human SCLC)
T1 sequence (P30550 whole entry): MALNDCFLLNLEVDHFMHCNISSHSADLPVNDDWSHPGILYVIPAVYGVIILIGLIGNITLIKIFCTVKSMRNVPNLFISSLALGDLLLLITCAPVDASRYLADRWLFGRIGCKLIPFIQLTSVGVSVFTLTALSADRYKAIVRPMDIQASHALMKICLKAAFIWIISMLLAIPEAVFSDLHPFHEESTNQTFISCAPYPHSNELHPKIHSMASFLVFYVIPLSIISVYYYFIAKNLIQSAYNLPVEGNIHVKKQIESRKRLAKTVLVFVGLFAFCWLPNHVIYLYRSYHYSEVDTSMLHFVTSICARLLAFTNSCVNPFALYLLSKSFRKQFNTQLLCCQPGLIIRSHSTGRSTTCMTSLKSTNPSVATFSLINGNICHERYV
Method: SCLC cell line NCI-H345 was cultured for two days in medium containing 10^-8 M hydrocortisone, 5 μg/ml bovine insulin, 10 μg/ml human transferrin, 10^-8 M β-estradiol and 3×10^-8 M Na2 SeO3. The cells were harvested and washed, resuspended in medium containing 20 mM HEPES, pH 7.4, and loaded with 5 μM Fura 2 AM (Calbiochem) for 30 minutes. The cells were centrifuged at 150×g for 10 minutes to remove extracellular dye and resuspended and placed in a spectrofluorometer cell equipped with stirring and 37° C. heating. The emission was read at 510 nm with 340 excitation (Moody et al., Biochem. Biophys. Res. Commun. 147:189 (1987)). The response of compounds at 5 μM was measured initially as a screen and compared to that of 10 nM BBN. The response of varying concentrations of peptide (nM to μM) in the presence of 10 nM BBN was determined.

NCI-H345 [2] = test: Clonagenic assay, colony formation of NCI-H345; format: cell-based, human; conditions: antagonist 1 μM alone, mean ± S.E. of 3
BBN receptor [3] = molecular target: T1, BBN receptor; test: Inhibition of [125I]Tyr4-BBN binding to SCLC NCI-H345 membranes; conditions: for inhibition of BBN binding to SCLC membranes (in words): radiolabelled Tyr4-BBN
Method: (§2) Acinar cells from rat pancreas bind BBN and secrete amylase when treated with BBN. The ability of potential antagonists to bind to rat pancreatic acinar cells was examined by determining the ability of the compounds to inhibit the binding of radiolabelled BBN. […] Finally, antagonist activity of the compounds was determined by measuring the ability of compounds to prevent the release of amylase from cells in response to BBN. […] This cell line was also used to evaluate biological activities of potential antagonists derived from the structures of BBN and GRP. The binding of synthetic compounds to cellular membranes prepared from NCI-H345 was determined. The ability of potential antagonists to block the BBN-stimulated increase in cytosolic levels of Ca^++ was determined. Compounds showing inhibition were further tested to determine the effect on growth of two human SCLC cell lines in culture.
Potential antagonists were also evaluated for their ability to inhibit the binding of radiolabelled Tyr^4 -BBN to SCLC membranes and for their effects on BBN signal transduction in SCLC cells.

NCI-H345 [4] = test: Clonagenic assay, colony formation of NCI-H345; format: cell-based, human; set-up: key to Growth: significantly reduced (R); had no effect (--) on th; conditions: for reversal of colony inhibition by BBN (in words): 1 μM antagonist, 10 nM BBN added, both cell lines; for colony formation (in words): NCI-H345, 1 μM; for colony formation: NCI-H345, antagonist 1 μM plus BBN 10 nM; for Growth: compound 1 μM, clonal growth of a human tumor cell line
Method: as §1, with “The effect of 1 to 1000 nM concentration of peptides on growth of NCI-H345 colonies stimulated by 10 nM BBN was measured in the agarose cloning system (Mahoud et al., Cancer Res. 51:1798 (1991); Staley et al., Peptides 12:145-149 (1991)). […] On” for “On”

BBN receptor [5] = molecular target: T2, BBN receptor (Rattus norvegicus, UniProt P52500); test: Inhibition of bombesin-stimulated amylase release from rat pancreatic acini; format: cell-based; conditions: half-maximal inhibition of bombesin-stimulated amylase release from acini; mean ± s.e.m.
T2 sequence (P52500 whole entry): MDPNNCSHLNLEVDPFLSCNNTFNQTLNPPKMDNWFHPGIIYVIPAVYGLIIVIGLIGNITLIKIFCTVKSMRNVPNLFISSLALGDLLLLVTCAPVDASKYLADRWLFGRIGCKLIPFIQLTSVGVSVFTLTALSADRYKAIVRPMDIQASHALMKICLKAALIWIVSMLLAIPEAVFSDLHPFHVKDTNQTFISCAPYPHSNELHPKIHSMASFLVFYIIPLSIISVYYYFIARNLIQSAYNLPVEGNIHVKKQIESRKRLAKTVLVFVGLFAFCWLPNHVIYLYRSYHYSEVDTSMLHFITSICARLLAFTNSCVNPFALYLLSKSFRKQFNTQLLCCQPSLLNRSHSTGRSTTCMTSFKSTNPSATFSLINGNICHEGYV
Method: as §2
The incubation solution contained 1% albumin and the wash solution contained 0.2% albumin. The solution was equilibrated with 100% O2. Dispersed acini were suspended in 20 ml of solution. Samples of 1 ml were incubated in the presence of various concentrations of compounds in the presence of 1 nM bombesin. After the first incubation the samples were washed 4 times with wash solution at 4° C. The acini were then resuspended in fresh incubation buffer and incubated at 37° C. Amylase release was measured by the Phadebas reagent. Amylase secretion during a given incubation was expressed as the percentage of amylase present in the acini at the beginning of that incubation that was released into the extracellular medium.

BBN receptor [6] = molecular target: T2, BBN receptor; test: Stimulation of amylase release from rat pancreatic acinar cells by the compound alone (agonist test); format: cell-based
BBN receptor [7] = molecular target: T2, BBN receptor; test: Inhibition of 125I bombesin binding to rat pancreatic acinar cells
Method: Inhibition of equilibrium binding of ^125 I labeled bombesin to acinar membranes by the compounds was determined. The Kd was determined by dividing IC50 (the concentration of synthetic compound required to inhibit 50% of the specific binding of labelled BBN) by the concentration of radiolabeled peptide.

bombesin receptor = conditions: inhibits growth with moderate potency; literature value; cited from earlier work
[8] = antagonist 1 μM alone, mean ± S.E. of 3

IC50 (BBN receptor [3]; 50% inhibition of specific [125I]Tyr4-BBN binding, NCI-H345, read-out: IC50) [µM] | IC50 (BBN receptor [5]) [µM] | EC50 (BBN receptor [6]) [µM] | Kd (BBN receptor [7]; inhibition of 125I bombesin binding, IC50 divided by radioligand concentration) [µM] | binding to rat pancreatic acinar cells (in words) (BBN receptor [7]; inhibition of radiolabelled BBN binding) | Molecule | colony formation (NCI-H720; [8]) [Colony per mm^2] | colony formation (NCI-H720; antagonist 1 μM plus BBN 10 nM) [Colony per mm^2] | colony formation (in words) (NCI-H720) | Ca++ effect (BBN receptor [1]) | colony formation (NCI-H345 [2]) [Colony per mm^2] | IC50 (BBN receptor [3]) [µM] | inhibition of BBN binding to SCLC membranes (in words) (BBN receptor [3]) | reversal of colony inhibition by BBN (in words) (NCI-H345 [4]) | colony formation (in words) (NCI-H345 [4]) | colony formation (NCI-H345 [4]) [Colony per mm^2] | Growth (NCI-H345 [4]) | Ki (bombesin receptor) [µM]
– | – | – | – | – | CCOC(=O)[C@H](CC(C)C)NC(=O)[C@H](Cc1c[nH]cn1)NC(=O)[C@@H](C)NC(=O)[C@@H](NC(=O)[C@H](C)NC(=O)[C@H](Cc1c[nH]c2ccccc12)NC(=O)[C@H](CCC(N)=O)NC(=O)[C@H](CC(N)=O)NC(=O)CBr)C(C)C [PTC 816] (BrAc-NQWAV[dA]HL-OEt) | 37 ± 6 | 66 ± 8 | reduce the amount of colony formation | A | 27 ± 4 | 0.055 | potent inhibitors of BBN binding | can be reversed | reduce the amount of colony formation | 52 ± 3 | R | –
0.025 | 0.0049 ± 0.0001 | > 3 | 0.0081 ± 0.0018 | did bind to the cells | CCOC(=O)[C@H](CC(C)C)NC(=O)[C@H](Cc1c[nH]cn1)NC(=O)[C@@H](C)NC(=O)[C@@H](NC(=O)[C@H](C)NC(=O)[C@H](Cc1c[nH]c2ccccc12)NC(=O)[C@H](Cc1c[nH]cn1)NC(C)=O)C(C)C [PTC 818] (Ac-HWAV[dA]HL-OEt) | 36 ± 4 | 62 ± 7 | reduce the amount of colony formation | A | 20 ± 5 | – | potent inhibitors of BBN binding | can be reversed | reduce the amount of colony formation | 57 ± 6 | R | –
– | – | – | – | – | [Psi^13,14, Leu^14 ]BBN | – | – | – | – | – | – | – | – | – | – | – | 0.03
